Reference: publication PMC9558304, “Biomimetic Mineralization of Iron-Fumarate Nanoparticles for Protective Encapsulation and Intracellular Delivery of Proteins” (Chemistry of Materials, 2022)

Target: T1, horseradish peroxidase (HRP) (Armoracia rusticana, UniProt P00433)
T1 construct: gene PRXC1A
T1 sequence (P00433 31-338): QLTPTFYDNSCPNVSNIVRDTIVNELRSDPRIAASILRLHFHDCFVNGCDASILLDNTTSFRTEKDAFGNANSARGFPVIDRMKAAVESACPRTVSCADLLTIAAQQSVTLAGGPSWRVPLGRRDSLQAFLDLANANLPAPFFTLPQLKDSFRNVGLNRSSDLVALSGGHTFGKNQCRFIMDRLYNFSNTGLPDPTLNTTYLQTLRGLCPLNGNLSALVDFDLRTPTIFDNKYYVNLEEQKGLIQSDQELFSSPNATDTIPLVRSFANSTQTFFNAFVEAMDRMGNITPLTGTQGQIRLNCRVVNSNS
Test: fluorescence plate reader ([…] nm), Michaelis-Menten fit
Assay type: biochemical
Settings: free HRP added to degraded Fe-fum NPs (citrate buffer); 2500 μM H2O2; Amplex UltraRed 0-100 μM

Km: 182 ± 73 µM
Substance: Amplex UltraRed
